Experiments:
[1] = target: T1, PTHR (Homo sapiens, UniProt Q03431); test: Time-course measurement of cAMP by FRET; assay type: cell-based; conditions: comparison of PTH^WT and its diastereomers, fig. S1B
T1 sequence (Q03431 27-593): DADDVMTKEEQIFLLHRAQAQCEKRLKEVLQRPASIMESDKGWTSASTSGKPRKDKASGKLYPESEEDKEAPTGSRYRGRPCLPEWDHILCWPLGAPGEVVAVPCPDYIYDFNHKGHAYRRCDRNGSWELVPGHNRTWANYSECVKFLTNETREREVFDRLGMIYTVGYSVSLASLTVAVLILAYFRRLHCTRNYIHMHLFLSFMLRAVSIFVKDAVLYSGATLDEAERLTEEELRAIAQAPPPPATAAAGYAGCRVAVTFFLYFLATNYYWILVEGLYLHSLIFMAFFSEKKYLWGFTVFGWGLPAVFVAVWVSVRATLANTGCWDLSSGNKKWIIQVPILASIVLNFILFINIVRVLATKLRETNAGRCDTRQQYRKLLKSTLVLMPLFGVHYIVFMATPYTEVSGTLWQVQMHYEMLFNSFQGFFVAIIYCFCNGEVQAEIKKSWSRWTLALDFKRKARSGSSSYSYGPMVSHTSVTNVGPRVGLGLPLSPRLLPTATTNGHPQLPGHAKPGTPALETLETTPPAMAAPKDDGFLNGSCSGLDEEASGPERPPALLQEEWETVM

[2] = target: T2, PTHR^CFP and βarr-2^YFP (Homo sapiens, UniProt Q03431); test: Time-course of β-arr2 recruitment by FRET; assay type: cell-based; conditions: comparison of PTH^WT and its diastereomers, fig. S1C
T2 sequence (Q03431 27-593): T1 sequence (Q03431 27-593)

[3] = target: PTHR in membranes of HEK-293-Gs-null cells (clone CL2) (UniProt Q03431); test: radioligand binding

For (D)-Asn([10])-PTH1–34 [PTH^10d], the “cAMP production time course” value [1] was “indistinguishable increases in cAMP” and the “interaction of PTHR with β-arr2, time course” value [2] was “stimulated the interaction of PTHR with β-arr2”.

“(D)-Leu(7)-PTH_(1–34)-NH2 (PTH^7d) (peptide)” showed an IC50 [3] of 0.1 nM.

With “PTH_(1–34) (PTH^WT), the synthetic N-terminal fragment of parathyroid hormone (peptide)” the IC50 [3] was 0.1 nM.

From paper PMC8682804 (Science signaling, 2021)
